Source: patent US20060069038A1, “Irreversible caspase-3 inhibitors as active site probes” (priority 2003, published 2006)
Where two headings read alike, the source gives them in different places.

Key:
rat thymocytes = assay: DNA fragmentation (flow cytometry) in cultured rat thymocytes; assay type: cell-based; conditions: for IC50: Rattus norvegicus, Thymocyte
Method: Rat thymocytes were cultured for 24 hours at a density of 10×10^6 cells/ml in CytoSF4 supplemented with 2 mM L-glutamine and penicillin-streptamycin and the indicated concentration of caspase inhibitors.
DNA fragmentation was determined by flow cytometry on 1.5×10^6 thymocytes or 500,000 Jurkat cells fixed for 30 min on ice in 80% EtOH. The cells were pelleted by centrifugation at 300 g for 10 min, suspended in PBS and incubated on ice for 45 min. […] Several dilutions were prepared for each sample to ensure that signal would be found within the assays linear range.

[1] = target: T1, purified recombinant human caspase-3 (Homo sapiens, UniProt P42574); assay: Direct [125I]-M808 labeling of purified recombinant human caspase-3; assay type: binding; conditions: FIG. 2A lane 1
T1 construct: Active site shared between large and small caspase subunit
T1 sequence (P42574 29-175 limits assumed): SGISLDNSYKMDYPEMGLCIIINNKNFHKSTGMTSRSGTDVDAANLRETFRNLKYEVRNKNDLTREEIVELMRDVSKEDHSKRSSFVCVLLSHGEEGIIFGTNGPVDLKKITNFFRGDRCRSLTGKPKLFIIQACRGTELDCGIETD
T1 sequence (P42574 176-277 limits assumed): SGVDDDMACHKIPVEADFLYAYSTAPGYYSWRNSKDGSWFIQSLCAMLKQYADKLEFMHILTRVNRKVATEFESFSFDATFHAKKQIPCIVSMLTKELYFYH
Method: The determination of caspase activity by [^125I]-M808 labeling was performed by pre-incubating purified recombinant human caspase-3 with indicated amounts of caspase inhibitor (M791) or vehicle (DMSO), for 1 hour at 25° C. in ICE buffer III (50 mM Hepes-KOH pH 7.0, 0.1% CHAPS, 10% sucrose, 2 mM EDTA), supplemented with 5 mM DTT. [^125I]-M808 was added to a final concentration of 1.25 μM and incubated for 5 min at 25° C. Active caspases in tissue or cell extracts were labeled by incubating 60-80 μg of lysate with [^125I]-M808 for 15 minutes at 25° C. Labeling was stopped by addition of Laemli buffer (2% SDS; 0.35 M O-mercaptoethanol; 50 mM Tris-Cl pH 6.8; 10% glycerol; 0.05% bromophenol blue) and by heating at 95° C. for 5 minutes. Caspase labeling in whole cells was performed as following. NT2 cells were plated in 24-well dishes (50 000 cells/well) in DMEM+10% FBS. The next day, media was replaced by media containing camptothecin (5 μg/ml) and the indicated amounts of caspase inhibitors. The culture media was removed after 5 hours of incubation and replaced by 100 μl of fresh media containing 12.5 nM [^125]-M808. After a 1 h incubation at 37° C., the media was removed, the cells were washed once with PBS and lysed in lysis buffer+25 μM M808. Cellular debris was removed by centrifugation at 13000 rpm for 10 min and boiled at 95° C. in Laemli buffer. […]

Row | IC50 (rat thymocytes; cultured rat thymocytes, experiment of FIG. 5, read-out: IC50, inhibition of DNA fragmentation) [µM] | IC50 (rat thymocytes; cultured thymocytes, N. Methot et al., in press, p<0.01 vs spectrin cleavage, read-out: IC50, inhibition of DNA fragmentation) [µM] | IC50 (rat thymocytes; five independent experiments, read-out: DNA fragmentation IC50) [µM] | labeling of p17 subunit of caspase-3 [1] | SMILES | M867 required to inhibit DNA fragmentation compared to spectrin cleavage (rat thymocytes; ratio of IC50s)
1 | 0.24 | 0.27 | 0.27 |  | CCCCCN(C)CC(=O)[C@H](CC(=O)O)NC(=O)[C@H](CC)n1cc(C(C)(C)C)nc(NCc2nonc2C)c1=O [Example M867, (3S)-3-({(2S)-2-[5-tert-butyl-3-{[(4-methyl-1,2,5-oxadiazol-3-yl)methyl]amino}-2-oxopyrazin-1(2H)-yl]butanoyl}amino)-5-[methyl(pentyl)amino]-4-oxopentanoic acid] | Three-fold
2 |  |  |  | covalently bound | COc1ccc(I)cc1CC(=O)N[C@H](C(=O)NC(CC(=O)O)C(=O)CF)C(C)C (stereo partly drawn) [[^125I]-M808, 5-fluoro-3-({N-[(5-iodo-2-methoxyphenyl)acetyl]-L-valyl}amino)-4-oxopentanoic acid] | 
